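Step 1: Grow cells in 96-well plates. Step 2: Expose to compound for 48 hours at 5 concentrations. Step 3: Interpolate endpoints linearly; if unreached, use highest concentration. The concentration for 50% growth inhibition is given as GI50.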 Calls of active or inactive are those of the source. Rule as the data show it: active = GI50 up to about 1.1 µM and inactive = higher.
Experiments:
Test in all cases: NCI anticancer screen, dose series, 48 h
NCI-H23 = test system: NCI-H23
SK-MEL-5 = test system: SK-MEL-5
786-0 = test system: 786-0
M14 = test system: M14
HT-29 = test system: HT-29
COLO 205 = test system: COLO 205
SF-539 = test system: SF-539
HCT-15 = test system: HCT-15
SK-MEL-2 = test system: SK-MEL-2
EKVX = test system: EKVX
SN12C = test system: SN12C
TK-10 = test system: TK-10
NCI-H460 = test system: NCI-H460
OVCAR-5 = test system: OVCAR-5
U-251 = test system: U-251
SW-620 = test system: SW-620
NCI-H522 = test system: NCI-H522
HCT-116 = test system: HCT-116
PC-3 = test system: PC-3
Hs-578T = test system: Hs-578T

Structure (SMILES) | GI50 (NCI-H23) | GI50 (SK-MEL-5) | GI50 (786-0) | GI50 (M14) | GI50 (HT-29) | GI50 (COLO 205) | GI50 (SF-539) | GI50 (HCT-15) | GI50 (SK-MEL-2) | GI50 (EKVX) | GI50 (SN12C) | GI50 (TK-10) | GI50 (NCI-H460) | GI50 (OVCAR-5) | GI50 (U-251) | GI50 (SW-620) | GI50 (NCI-H522) | GI50 (HCT-116) | GI50 (PC-3) | GI50 (Hs-578T)
Cc1ccc(S(=O)(=O)O/N=C2\CCC\C2=C/c2ccccc2)cc1 | 19.4 µM (inactive) | 14.8 µM (inactive) | 25.4 µM (inactive) | 21.3 µM (inactive) | 25.3 µM (inactive) | 16.3 µM (inactive) | 19.9 µM (inactive) | 22.9 µM | 16.9 µM (inactive) | 19.6 µM (inactive) | 45 µM (inactive) | 16.6 µM (inactive) | 19.5 µM (inactive) | 23 µM (inactive) | 31.6 µM (inactive) | 29.6 µM (inactive) | 18.9 µM (inactive) | 12.4 µM (inactive) |  | 
CC1CCCN(CC(O)CN2CCCc3ccccc32)C1 (centres undefined) | > 100 µM (inactive) | > 100 µM (inactive) | > 100 µM (inactive) | > 100 µM (inactive) | 41.6 µM (inactive) | > 100 µM (inactive) |  | > 100 µM | > 100 µM (inactive) | > 100 µM (inactive) | > 100 µM (inactive) | > 100 µM (inactive) |  | > 100 µM (inactive) | > 100 µM (inactive) | > 100 µM (inactive) | 64.4 µM (inactive) | > 100 µM (inactive) | > 100 µM (inactive) | 56.2 µM (inactive)
COC(=O)C1=C(C(=O)OC)C(OO)(c2ccccc2)OC1=O (centres undefined) | > 100 µM (inactive) | 50.2 µM (inactive) | 36.5 µM (inactive) | > 100 µM (inactive) | 35.9 µM (inactive) | > 100 µM (inactive) | 33.3 µM (inactive) | 40.6 µM | 55.2 µM (inactive) | > 100 µM (inactive) | 86.3 µM (inactive) | > 100 µM (inactive) | 48.6 µM (inactive) | 40.6 µM (inactive) | 37.4 µM (inactive) | > 100 µM (inactive) | 60.7 µM (inactive) | 61.7 µM (inactive) | 38.6 µM (inactive) | 
CC1CCC(O)(C(C)(C(=O)O)c2ccccc2)CC1 (centres undefined) | > 100 µM (inactive) | > 100 µM (inactive) | > 100 µM (inactive) | 49 µM (inactive) | > 100 µM (inactive) |  |  | > 100 µM | > 100 µM (inactive) | > 100 µM (inactive) | > 100 µM (inactive) | > 100 µM (inactive) | 42.8 µM (inactive) | > 100 µM (inactive) | 64 µM (inactive) | > 100 µM (inactive) | > 100 µM (inactive) | > 100 µM (inactive) | > 100 µM (inactive) | 74 µM (inactive)
CCc1cccc2c3c([nH]c12)-c1ccccc1NC(=O)C3 | > 100 µM (inactive) | > 100 µM (inactive) | > 100 µM (inactive) | > 100 µM (inactive) | > 100 µM (inactive) | > 100 µM (inactive) |  | 84.1 µM | > 100 µM (inactive) | > 100 µM (inactive) | 95.5 µM (inactive) | > 100 µM (inactive) | > 100 µM (inactive) | > 100 µM (inactive) | > 100 µM (inactive) | > 100 µM (inactive) |  |  |  | 30.7 µM (inactive)
Cc1ccc2c(O)cc(-c3ccc4ccccc4c3)nc2n1 | 4.41 µM (inactive) |  | 3.94 µM (inactive) | 8.89 µM (inactive) | 3.75 µM (inactive) | 2.11 µM (inactive) | 4.74 µM (inactive) | 3.54 µM | 5.97 µM (inactive) | 5.96 µM (inactive) | 5.3 µM (inactive) | 8.45 µM (inactive) |  | 19.3 µM (inactive) |  | 2.8 µM (inactive) | 3.32 µM (inactive) |  |  | 3.1 µM (inactive)
